Assay results as given in patent publication US9204640B2, “2-acyloxy-pyrrolin-4-ones” (BAYER INTELLECTUAL PROPERTY GMBH, priority 2011, dated 2015).

How the values were obtained:
Format in all cases: in vivo
Setaria viridis = assay: Herbicidal pre-emergence action, SETVI; details: 20 g/ha
Source text: 1. Herbicidal Pre-Emergence Action
• Seeds of monocotyledonous and dicotyledonous weed plants and crop plants are placed in wood-fiber pots in sandy loam and covered with soil. The test compounds, formulated in the form of wettable powders (WP), are then, as an aqueous suspension with a water application rate of 600 l/ha (converted), with 0.2% of wetting agent added, applied at various dosages to the surface of the covering soil. • After the treatment, the pots are placed in a greenhouse and kept under good growth conditions for the test plants. The visual assessment of the damage to the test plants is carried out after a trial period of about 3 weeks by comparison with untreated controls (herbicidal activity in percent: 100% activity=the plants have died, 0% activity=like control plants). • In addition to the compounds mentioned above, the following compounds show an activity of 90-100% against Alopecurus myosuroides, Digitaria sanguinalis, Echinocloa crus-galli, Lolium multiflorum, Setaria viridis and Sorghum halapense when applied by the pre-emergence method at 320 g/ha of a.i.: I-a-2, I-a-10, I-a-11, I-a-12.
1. Herbicidal Pre-Emergence Action (Pre)
• Seeds of monocotyledonous and dicotyledonous weed plants and crop plants are placed in wood-fiber pots in sandy loam and covered with soil. The test compounds, formulated in the form of wettable powders (WP) or emulsion concentrates (EC), are then, as an aqueous suspension with a water application rate of 600-800 l/ha (converted), with 0.1-0.2% of wetting agent added, applied at various dosages to the surface of the covering soil. • After the treatment, the pots are placed in a greenhouse and kept under good growth conditions for the test plants. […] Herbicidal Post-Emergence Action (Post) • Seeds of monocotyledonous and dicotyledonous weed and crop plants are placed in sandy loam in wood-fiber pots, covered with soil and cultivated in a greenhouse under good growth conditions. 2-3 weeks (stages 10-13 according to the BBCH scale) after sowing, the test plants are treated at a height of 5-10 cm. The test compounds, formulated as wettable powders (WP) or emulsion concentrates (EC), are then, with a water application rate of 600-800 l/ha (converted), with 0.1-0.2% of wetting agent added, sprayed at various dosages onto the green parts of the plants.
AVEFA: Avena fatua LOLMU: Lolium multiflorum SETVI: Setaria viridis CHEAL: Chenopodium album VIOTR: Viola tricolor VERPE: Veronica persica ORYSA: Oryza sativa TRZAS: Triticum aestivum ZEAMX: Zea mays ALOMY: Alopecurus myosuroides DIGSA: Digitaria sanguinalis ECHCG: Echinocloa crus-galli SORHA: Sorghum halepense AVESA: Avena sativa AMARE: Amaranthus retroflexus SINAL: Sinapis alba STEME: Stellaria media

Myzus persicae = Myzus persicae test (MYZUPE Tau), leaf dipping; details: 20 ppm, 6dat
Description: Myzus Persicae Test (MYZUPE Tau) To produce a suitable preparation of active compound, 1 part by weight of active compound is mixed with the stated amount of solvent and emulsifier, and the concentrate is diluted with emulsifier-containing water to the desired concentration. Cabbage leaves (Brassica oleracea) which are heavily infested by the green peach aphid (Myzus persicae) are treated by dipping into the active compound preparation of the desired concentration. After the desired period of time, the kill in % is determined. 100% means that all of the aphids have been killed; 0% means that none of the aphids have been killed.

Phaedon cochleariae = assay: Phaedon test (PHAECO spray treatment); details: application rate 500 g/ha, after 7 days, Chinese cabbage leaf discs
Procedure, shortened: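 Chinese cabbage (Brassica pekinensis) leaf discs sprayed with compound diluted in emulsifier-containing water to the desired concentration, then infested with mustard beetle larvae once dry. Mortality in % scored after 7 days or after the desired period (100% = all larvae dead, 0% = none dead).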

Structure (SMILES): CCOC(=O)OC1=C(c2c(C)cc(I)cc2CC)C(=O)C2(CCC(OC)CC2)N1 (mixture of isomers) [I-b-2]
- % Activity SETVI (Setaria viridis): 70%
- % Activity MYZUPE tau (Myzus persicae): 90%
- effect in % (beetle larvae killed) (Phaedon cochleariae): 83%
